Data reported in patent publication US9181236B2, “2-spiro-substituted iminothiazines and their mono-and dioxides as bace inhibitors, compositions and their use” (Merck Sharp & Dohme Corp., priority 2011, dated 2015).

Tests used:
[1] = molecular target: soluble human BACE1 catalytic domain (Homo sapiens (Human), UniProt P56817); experiment: BACE1 HTRF FRET Assay; format: biochemical; conditions: for Ki: Ki calculated from IC50 using the Cheng-Prusoff equation; for inhibition at 10 µM: read-out: BACE1 % Inh. at 10 μM; for inhibition at 1 µM: read-out: BACE1 % Inh. at 1 μM
Source text: A homogeneous time-resolved FRET assay can be used to determine IC50 values for inhibitors of the soluble human BACE1 catalytic domain. This assay monitors the increase of 620 nm fluorescence that resulted from BACE1 cleavage of an APPswedish APP^swe mutant peptide FRET substrate (QSY7-[…]-Europium-amide). This substrate contains an N-terminal QSY7 moiety that serves as a quencher of the C-terminal Europium fluorophore (620 nm Em). In the absence of enzyme activity, 620 nm fluorescence is low in the assay and increased linearly over 3 hours in the presence of uninhibited BACE1 enzyme Inhibition of BACE1 cleavage of the QSY7-APP^swe-Eu substrate by inhibitors is manifested as a suppression of 620 nm fluorescence.
Reactions are initiated by addition of 10 μl of 600 nM QSY7-APP^swe-Eu substrate (200 nM final) to give a final reaction volume of 30 μl in a 384 well Nunc HTRF plate. The reactions are incubated at 30° C. for 1.5 hours. The 620 nm fluorescence is then read on a Rubystar HTRF plate reader (BMG Labtechnologies) using a 50 millisecond delay followed by a 400 millisecond acquisition time window Inhibitor IC50 values are derived from non-linear regression analysis of concentration response curves.

[2] = molecular target: purified human autoBACE-2 (Homo sapiens (Human), UniProt Q9Y5Z0); experiment: BACE-2 Assay (BACE-HTRF assay); format: biochemical; conditions: Ki calculated from IC50 using the Cheng-Prusoff equation; read-out: BACE2 Ki
Description: Inhibitor IC50s at purified human autoBACE-2 are determined in a time-resolved endpoint proteolysis assay that measures hydrolysis of the QSY7-[…]-Eu-amide FRET peptide substrate (BACE-HTRF assay). […] DMSO is present at 5% final concentration in the assay. Following laser excitation of sample wells at 320 nm, the fluorescence signal at 620 nm is collected for 400 ms following a 50 μs delay on a RUBYstar HTRF plate reader (BMG Labtechnologies). Raw RFU data is normalized to maximum (1.0 nM BACE/DMSO) and minimum (no enzyme/DMSO) RFU values. […] The Ki values are calculated from the IC50 using the Cheng-Prusoff equation.

Sequence of soluble human BACE1 catalytic domain (P56817 75-416): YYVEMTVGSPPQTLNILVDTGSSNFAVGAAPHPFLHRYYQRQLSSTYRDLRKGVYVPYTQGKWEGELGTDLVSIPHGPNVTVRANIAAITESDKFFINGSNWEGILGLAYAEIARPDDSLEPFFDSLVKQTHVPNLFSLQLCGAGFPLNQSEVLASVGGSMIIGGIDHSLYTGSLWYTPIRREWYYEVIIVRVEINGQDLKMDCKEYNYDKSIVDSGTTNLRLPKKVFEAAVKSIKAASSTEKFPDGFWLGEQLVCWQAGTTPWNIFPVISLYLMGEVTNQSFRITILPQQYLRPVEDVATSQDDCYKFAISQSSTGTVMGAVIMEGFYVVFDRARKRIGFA
Sequence of purified human autoBACE-2 (Q9Y5Z0 63-473 limits assumed): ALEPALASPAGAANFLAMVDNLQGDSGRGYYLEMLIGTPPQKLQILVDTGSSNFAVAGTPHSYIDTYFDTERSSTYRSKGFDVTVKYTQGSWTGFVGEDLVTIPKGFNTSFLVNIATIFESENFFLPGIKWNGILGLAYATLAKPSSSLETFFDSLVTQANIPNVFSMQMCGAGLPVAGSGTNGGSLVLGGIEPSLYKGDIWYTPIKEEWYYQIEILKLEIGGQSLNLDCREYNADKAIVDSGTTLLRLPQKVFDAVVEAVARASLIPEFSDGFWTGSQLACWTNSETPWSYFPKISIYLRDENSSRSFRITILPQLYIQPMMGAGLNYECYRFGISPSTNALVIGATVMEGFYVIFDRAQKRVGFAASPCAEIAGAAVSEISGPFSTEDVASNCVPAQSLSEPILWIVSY

| Structure (SMILES) | Ki [1] [nM] | Ki [2] [nM] | inhibition at 10 µM [1] [%] | inhibition at 1 µM [1] [%] |
| --- | --- | --- | --- | --- |
| C[C@@]1(c2cc(N)ccc2F)CS(=O)(=O)C2(CC2)C(=N)N1 | 4900 | 1860 | – | – |
| C[C@@]1(c2cc([N+](=O)[O-])ccc2F)CS(=O)(=O)C2(CCC2)C(=N)N1 | 3630 | 3200 | – | – |
| C[C@@]1(c2cc(N)ccc2F)CS(=O)(=O)C2(CCC2)C(=N)N1 | – | 3970 | 54 | – |
| C[C@@]1(c2cc([N+](=O)[O-])ccc2F)CS(=O)(=O)C2(CCCC2)C(=N)N1 | – | 734 | – | 44 |
| C[C@@]1(c2cc(N)ccc2F)CS(=O)(=O)C2(CCCCC2)C(=N)N1 | – | 2800 | 49 | – |
| C[C@@]1(c2cc(Br)ccc2F)CS(=O)(=O)C2(CCCC2)C(=N)N1 | – | 935 | – | 42 |
| C[C@@]1(c2sc(Br)cc2Cl)CS(=O)(=O)C2(CCC2)C(=N)N1 | 1570 | 531 | – | – |
| C[C@@]1(c2cc([N+](=O)[O-])ccc2F)CS(=O)(=O)[C@]2(CCOC2)C(=N)N1 | 6690 | 2080 | – | – |
| C[C@@]1(c2cc(N)ccc2F)CS(=O)(=O)[C@]2(CCOC2)C(=N)N1 | – | 5110 | 45 | – |
| C[C@@]1(c2cc([N+](=O)[O-])ccc2F)CS(=O)(=O)[C@@]2(CCOC2)C(=N)N1 | 6120 | 2670 | – | – |
| C[C@@]1(c2cc(N)ccc2F)CS(=O)(=O)[C@@]2(CCOC2)C(=N)N1 | – | 3820 | 38 | – |
| C[C@@]1(c2sc(Br)cc2Cl)CS(=O)(=O)C2(CC2)C(=N)N1 | 912 | 465 | – | – |
| C[C@@]1(c2cc(NC(=O)c3ccc(F)cn3)ccc2F)CS(=O)(=O)C2(CCC(O)C2)C(=N)N1 (single isomer, unassigned) [Example 76a] | 9.3 | 2.4 | – | – |
| C[C@@]1(c2cc(NC(=O)c3ccc(F)cn3)ccc2F)CS(=O)(=O)C2(CCC(O)C2)C(=N)N1 (single isomer, unassigned) [Example 76b] | 104 | < 50 | – | – |
| C[C@@]1(c2cc(NC(=O)c3ccc(Cl)cn3)ccc2F)CS(=O)(=O)C2(CC2)C(=N)N1 [Example 1] | 1.6 | 0.4 | – | – |
| COc1cnc(C(=O)Nc2ccc(F)c([C@]3(C)CS(=O)(=O)C4(CC4)C(=N)N3)c2)cn1 [Example 2] | 4.2 | < 20 | – | – |
| C[C@@]1(c2cc(NC(=O)c3ccc(F)cn3)ccc2F)CS(=O)(=O)C2(CC2)C(=N)N1 [Example 3] | 5.5 | 0.9 | – | – |
| C[C@@]1(c2cc(NC(=O)c3ncc(F)cc3F)ccc2F)CS(=O)(=O)C2(CC2)C(=N)N1 [Example 4] | 5 | 0.5 | – | – |
| COc1ccc(C(=O)Nc2ccc(F)c([C@]3(C)CS(=O)(=O)C4(CC4)C(=N)N3)c2)nc1 [Example 5] | 3.4 | 1.9 | – | – |
| C[C@@]1(c2cc(NC(=O)c3ccc(Cl)cn3)ccc2F)CS(=O)(=O)C2(CCC2)C(=N)N1 [Example 6] | 8 | 1.9 | – | – |
| COc1cnc(C(=O)Nc2ccc(F)c([C@]3(C)CS(=O)(=O)C4(CCC4)C(=N)N3)c2)cn1 [Example 7] | 11.7 | < 50 | – | – |
| C[C@@]1(c2cc(NC(=O)c3ccc(F)cn3)ccc2F)CS(=O)(=O)C2(CCC2)C(=N)N1 [Example 8] | 17.1 | 4.2 | – | – |
| C[C@@]1(c2cc(NC(=O)c3ncc(F)cc3F)ccc2F)CS(=O)(=O)C2(CCC2)C(=N)N1 [Example 9] | 12.6 | 2.5 | – | – |
| COc1ccc(C(=O)Nc2ccc(F)c([C@]3(C)CS(=O)(=O)C4(CCC4)C(=N)N3)c2)nc1 [Example 10] | 10.7 | < 20 | – | – |
| C[C@@]1(c2cc(NC(=O)c3ccc(C#N)cn3)ccc2F)CS(=O)(=O)C2(CCC2)C(N)=N1 [Example 11] | 5.4 | < 20 | – | – |
| C[C@@]1(c2cc(NC(=O)c3ccc(Cl)cn3)ccc2F)CS(=O)(=O)C2(CCCC2)C(=N)N1 [Example 12] | 1.3 | 0.3 | – | – |
| C[C@@]1(c2cc(NC(=O)c3ccc(F)cn3)ccc2F)CS(=O)(=O)C2(CCCC2)C(=N)N1 [Example 13] | 3.1 | 0.3 | – | – |
| C[C@@]1(c2cc(NC(=O)c3ccc(C(F)(F)F)cn3)ccc2F)CS(=O)(=O)C2(CCCC2)C(=N)N1 [Example 14] | 2.2 | 2.1 | – | – |

| Structure (SMILES) | Ki [1] [nM] | Ki [2] [nM] | inhibition at 10 µM [1] [%] | inhibition at 1 µM [1] [%] |
| --- | --- | --- | --- | --- |
| COc1ccc(C(=O)Nc2ccc(F)c([C@]3(C)CS(=O)(=O)C4(CCCC4)C(=N)N3)c2)nc1 [Example 15] | 5.2 | 0.6 | – | – |
| C[C@@]1(c2cc(NC(=O)c3cnc(C(F)(F)F)cn3)ccc2F)CS(=O)(=O)C2(CCCC2)C(=N)N1 [Example 16] | 13 | < 20 | – | – |
| COc1cnc(C(=O)Nc2ccc(F)c([C@]3(C)CS(=O)(=O)C4(CCCC4)C(=N)N3)c2)cn1 [Example 17] | 3.6 | 1.5 | – | – |
| C[C@@]1(c2cc(NC(=O)c3cn4ncsc4n3)ccc2F)CS(=O)(=O)C2(CCCC2)C(=N)N1 [Example 19] | 18.4 | < 20 | – | – |
| C[C@@]1(c2cc(NC(=O)c3cn4ccsc4n3)ccc2F)CS(=O)(=O)C2(CCCC2)C(=N)N1 [Example 20] | 82 | < 20 | – | – |
| Cc1nc(C(=O)Nc2ccc(F)c([C@]3(C)CS(=O)(=O)C4(CCCC4)C(=N)N3)c2)no1 [Example 21] | 13.9 | 1.3 | – | – |
| C[C@@]1(c2cc(NC(=O)c3ccn(C(F)F)n3)ccc2F)CS(=O)(=O)C2(CCCC2)C(=N)N1 [Example 22] | 12.7 | 4.3 | – | – |
| C[C@@]1(c2cc(NC(=O)c3cnsn3)ccc2F)CS(=O)(=O)C2(CCCC2)C(=N)N1 [Example 23] | 108 | 3.1 | – | – |
| C[C@@]1(c2cc(NC(=O)c3ccc(F)cn3)ccc2F)CS(=O)(=O)C2(CCCCC2)C(=N)N1 [Example 25] | 32 | 4.4 | – | – |
| COc1ccc(C(=O)Nc2ccc(F)c([C@]3(C)CS(=O)(=O)C4(CCCCC4)C(=N)N3)c2)nc1 [Example 26] | 37 | < 20 | – | – |
| COc1cnc(C(=O)Nc2ccc(F)c([C@]3(C)CS(=O)(=O)C4(CCCCC4)C(=N)N3)c2)cn1 [Example 27] | 36 | < 50 | – | – |
| C[C@@]1(c2cc(NC(=O)c3ccc(C#N)cn3)ccc2F)CS(=O)(=O)C2(CCCCC2)C(=N)N1 [Example 28] | 10.6 | < 20 | – | – |
| C[C@@]1(c2cc(NC(=O)c3ccc(C(F)(F)F)cn3)ccc2F)CS(=O)(=O)C2(CCCCC2)C(=N)N1 [Example 29] | 23.3 | < 50 | – | – |
| C[C@@]1(c2cc(NC(=O)c3ccc(F)cn3)ccc2F)CS(=O)(=O)C2(CCOCC2)C(=N)N1 [Example 30] | 10.9 | 2.1 | – | – |
| COc1cnc(C(=O)Nc2ccc(F)c([C@]3(C)CS(=O)(=O)C4(CCOCC4)C(=N)N3)c2)cn1 [Example 32] | 16.3 | < 50 | – | – |
| C[C@@]1(c2cc(NC(=O)c3ccc(Cl)cn3)ccc2F)CS(=O)(=O)C2(CCOCC2)C(=N)N1 [Example 33] | 6.1 | 1.6 | – | – |
| C[C@@]1(c2cc(NC(=O)c3ccc(C(F)(F)F)cn3)ccc2F)CS(=O)(=O)C2(CCOCC2)C(=N)N1 [Example 34] | 19.8 | < 50 | – | – |
| COc1ccc(C(=O)Nc2ccc(F)c([C@]3(C)CS(=O)(=O)C4(CCOCC4)C(=N)N3)c2)nc1 [Example 35] | 16.4 | < 20 | – | – |
| C[C@@]1(c2sc(-c3cncc(C#N)c3)cc2Cl)CS(=O)(=O)C2(CCCC2)C(=N)N1 [Example 42] | 18.3 | 3.4 | – | – |
| COc1cccc2cc(-c3cc(Cl)c([C@]4(C)CS(=O)(=O)C5(CCCCC5)C(=N)N4)s3)[nH]c12 [Example 44] | 20.2 | 2 | – | – |
| C[C@@]1(c2sc(-c3cccc(C#N)c3)cc2Cl)CS(=O)(=O)C2(CCCCC2)C(=N)N1 [Example 45] | 48 | < 20 | – | – |
| C[C@@]1(c2sc(-c3cncc(C#N)c3)cc2Cl)CS(=O)(=O)C2(CCCCC2)C(=N)N1 [Example 46] | 114 | < 50 | – | – |
| C[C@@]1(c2sc(-c3cccc(-c4nnco4)c3)cc2Cl)CS(=O)(=O)C2(CCCCC2)C(=N)N1 [Example 47a] | 35.9 | < 50 | – | – |
| COc1cccc2cc(-c3cc(Cl)c([C@]4(C)CS(=O)(=O)C5(CCOCC5)C(=N)N4)s3)[nH]c12 [Example 48] | 19.8 | 2 | – | – |
| C[C@@]1(c2sc(-c3cccc(C#N)c3)cc2Cl)CS(=O)(=O)C2(CCOCC2)C(=N)N1 [Example 49] | 113 | < 50 | – | – |
| C[C@@]1(c2sc(-c3cncc(C#N)c3)cc2Cl)CS(=O)(=O)C2(CCOCC2)C(=N)N1 [Example 50] | 130 | < 50 | – | – |
| C[C@@]1(c2sc(-c3cccc(C(F)(F)F)c3)cc2Cl)CS(=O)(=O)C2(CCOCC2)C(=N)N1 [Example 52] | 147 | < 50 | – | – |
